pKi: −log10 of the molar value.
Legend:
[1] = biological target: T1, human adenosine A2A receptor (Homo sapiens, UniProt P29274); assay: Human cloned A2A adenosine receptor binding assay ([3H]ZM241385 displacement, CHO membranes); conditions: [3H]ZM241385, CHO cells transfected with human recombinant A2A receptors
T1 construct: expressed in transfected cells; host or cells: CHO cells (membrane preparation)
Procedure: CHO Membranes Preparation
The human adenosine receptors have been transfected in CHO cells according with the method previously described by Klotz et al. (Naunyn-Schmied. Arch Pharm. 1998, 357: 1-9). Briefly, the cells are grown adherently and maintained in Dulbecco's Modified Eagles Medium with nutrient mixture F12 (DMEM/F12) without nucleosides, containing 10% fetal calf serum, penicillin (100 U/mL), streptomycin (100 μg/mL), L-glutamine (2 mM) and Geneticin (G418, 0.2 mg/ml) at 37° C. in 5% CO2/95% air. For membrane preparation the culture medium is removed and the cells are ished with phosphate-buffered saline and scraped off T75 flasks in ice-cold hypo tonic buffer (5 mM Tris HCl, 1 mM EDTA, pH 7.4). The cell suspension is homogenized with Polytron, the homogenate is spun for 10 min at 1000×g and the supernatant is then centrifuged for 30 min at 100,000×g. […]
All new synthesized compounds have been tested to evaluate their affinity to human A1, A2A, A2B and A3 adenosine receptors. […] Non-specific binding is determined in the presence of 10 μM of CHA and this is always ≦10% of the total binding. […] Non-specific binding is determined in the presence of 1 μM ZM 241385 and is about 20% of total binding. […] Bound and free radioactivity are separated by filtering the assay mixture through Whatman GF/B glass fiber filters using a Micro-Mate 196 cell harvester (Packard Instrument Co.). The filter bound radioactivity is counted on a Top Count (efficiency 57%) with Micro-Scint 20.
The protein concentration is determined according to a Bio-Rad method (Bradford, Anal Biochem. 1976, 72: 248-254) with bovine albumin as a standard reference. Inhibitory binding constant, Ki, values are calculated from those of IC50 according to Cheng & Prusoff equation (Biochem. Pharmacol. 1973, 22: 3099-3108): Ki=IC50/(1+[C*]/KD*) where [C*] is the concentration of the radioligand and KD* its dissociation constant. […] Data are expressed as geometric mean with 95% confidence limits in parentheses.

6-OHDA lesion rats = assay: 6-OHDA lesion of the middle forebrain bundle in rats, Protocol B (apomorphine-induced rotation); format: in vivo, rat; conditions: 30 mg/kg single i.p. dose; threshold dose of apomorphine 0.02 mg/kg i.p.; significant increase, p≦0.05; FIG. 1
Procedure: Adult male Sprague-Dowley rats (Harlan UK ltd., Bicester, Oxon, UK), weighing 255±15 g, are used in all experiments. The rats are housed in groups of up to 5 per cage, and the animals are fed an expanded rodent diet of RM1(E) SQC (Special Diets Services, Witham, UK) ab libitum, and allowed free access to water, under controlled temperature and 12 hour light-dark cycle.
The test compounds are formulated for dosing by initially wet grinding a known amount in approximately 10% of the final volume of vehicle, i.e., propylene glycol/polyethylene glycol (PEG400)/glucose (D5W)-15/15/70 v %, in a mortal and pestle. Once suitably wetted, approximately 30% of the remaining vehicle is added, stirred for up to 10 min, and then sonicated for approximately 5 min. This step is repeated twice, using remaining vehicle to provide even suspensions of 0.6, 2 and 6 mg/mL. No correction factor is applied. All test substance formulations are clear to light tan colored suspensions, stored at RT and protected from light until dosing. The dose volume for the test compounds is 5 mL/kg to provide dosages of 3, 10 and 30 mg/kg, respectively.
Apomorphine hydrochloride (HCl) hemihydrate (Sigma, UK) is formulated for dosing by dissolving a known amount in 0.9% w/v sodium chloride (Baxter Healthcare Ltd., UK) to produce a clear, colorless solution of 0.02 mg/mL. […]

T1 sequence (P29274 whole entry): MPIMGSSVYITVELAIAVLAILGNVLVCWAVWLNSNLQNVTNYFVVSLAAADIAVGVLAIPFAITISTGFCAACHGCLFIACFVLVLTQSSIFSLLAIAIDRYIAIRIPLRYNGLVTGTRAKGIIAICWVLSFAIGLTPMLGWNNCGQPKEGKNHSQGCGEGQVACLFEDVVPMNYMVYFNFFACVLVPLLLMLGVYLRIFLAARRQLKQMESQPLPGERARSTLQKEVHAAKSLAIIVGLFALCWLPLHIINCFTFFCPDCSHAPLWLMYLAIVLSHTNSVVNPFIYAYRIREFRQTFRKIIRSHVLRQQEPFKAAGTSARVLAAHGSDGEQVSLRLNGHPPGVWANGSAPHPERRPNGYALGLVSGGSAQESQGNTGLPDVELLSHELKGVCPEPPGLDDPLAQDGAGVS

pKi [1]	SMILES	number of contralateral rotations (6-OHDA lesion rats)
~9.00	Nc1nc2c(ccn2CCN2CCN(C(=O)c3ccc(F)cc3F)CC2)c2nc(-c3ccco3)nn12 [Example 4, (4-(2-(5-Amino-2-(furan-2-yl)-7H-pyrrolo[3,2-e][1,2,4]triazolo[1,5-c]pyrimidin-7-yl)ethyl)piperazin-1-yl)(2,4-difluorophenyl)methanone]	
~7.55	CN(CCN(C)c1ccc(F)cc1F)CCn1ccc2c1nc(N)n1nc(-c3ccco3)nc21 [Example 29, N^1-(2-(5-Amino-2-(furan-2-yl)-7H-pyrrolo[3,2-e][1,2,4]triazolo[1,5-c]pyrimidin-7-yl)ethyl)-N^2-(2,4-difluorophenyl)-N^1,N^2-dimethylethane-1,2-diamine]	
~8.30	Nc1nc2c(ccn2CCN2CCN(c3ccc(F)cc3F)CC2)c2nc(-c3ccco3)nn12 [Example 30, 7-(2-(4-(2,4-Difluorophenyl)piperazin-1-yl)ethyl)-2-(furan-2-yl)-7H-pyrrolo[3,2-e][1,2,4]triazolo[1,5-c]pyrimidin-5-amine]	228±38
